Among the data in ChEMBL document CHEMBL5338773, “First-in-Class Selective Inhibitors of the Lysine Acetyltransferase KAT8” (J Med Chem, 2023) are inhibition and IC50 values, retold here.

Structures are written as SMILES. Active and inactive are the calls of the source. No cut-off for these calls is given here.

Experiment [1] deals with Histone acetyltransferase KAT2B (Homo sapiens) (UniProt Q92831). Briefly: Inhibition of recombinant human KAT2B (492 to 658 residues) using histone H3 peptide and [3H]-acetyl-coA as substrates at 200 uM incubated for 1 hrs by liquid scintillation counter analysis.
Experiment [2] concerns the target T1, Histone acetyltransferase KAT8 (Homo sapiens) (UniProt Q9H7Z6).
T1 sequence (whole entry): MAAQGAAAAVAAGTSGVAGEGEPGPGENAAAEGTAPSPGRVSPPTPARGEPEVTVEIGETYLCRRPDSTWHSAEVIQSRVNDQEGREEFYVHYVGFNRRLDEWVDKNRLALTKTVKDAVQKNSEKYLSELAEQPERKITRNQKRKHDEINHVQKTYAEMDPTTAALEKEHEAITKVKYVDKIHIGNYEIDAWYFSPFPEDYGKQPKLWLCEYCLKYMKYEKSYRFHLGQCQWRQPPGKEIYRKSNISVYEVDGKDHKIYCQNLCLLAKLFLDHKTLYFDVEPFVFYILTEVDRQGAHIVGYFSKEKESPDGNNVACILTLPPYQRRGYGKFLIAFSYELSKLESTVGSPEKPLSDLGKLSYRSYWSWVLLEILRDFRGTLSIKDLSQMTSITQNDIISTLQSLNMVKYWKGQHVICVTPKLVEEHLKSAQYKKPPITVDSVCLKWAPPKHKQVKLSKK
The experiment is described as follows: Inhibition of N-terminal 6His tagged KAT8 (173 to 458 residues) (unknown origin) expressed in Escherichia coli BL21(DE3) using biotinylated histone H4 peptide and [3H]Acetyl-CoA as substrates at 200 uM preincubated for 20 mins followed by substrate addition and measured after 4 hrs by MicroBeta microplate counter analysis. As to conditions: time 260.0 min.

Experiment [3] deals with Histone acetyltransferase p300 (Homo sapiens) (UniProt Q09472). The experiment is described as follows: Inhibition of recombinant human KAT3B (1287 to 1673 residues) using histone H3 peptide and [3H]-acetyl-coA as substrates at 200 uM incubated for 1 hrs by liquid scintillation counter analysis.
For experiment [4], the species on record is Homo sapiens. Briefly: Inhibition of human recombinant KDAC1 using Boc-Lys-(Ac)-AMC as substrate at 50 to 100 uM incubated for 45 mins by fluorescence microplate reader analysis. The following applies: dose 50-100 µM.
A short description of experiment [5]: Inhibition of human recombinant KDAC8.
The species named for experiment [6] is Homo sapiens. Briefly: Inhibition of human recombinant KDAC8 using Boc-Lys-(Ac)-AMC as substrate at 50 to 100 uM incubated for 45 mins by fluorescence microplate reader analysis. As to conditions: dose 50-100 µM.
Experiment [7] has as its target Histone deacetylase 3 (Homo sapiens) (UniProt O15379). Briefly: Inhibition of human recombinant KDAC3 using Boc-Lys-(Ac)-AMC as substrate at 50 to 100 uM incubated for 45 mins by fluorescence microplate reader analysis. As to conditions: dose 50-100 µM.
Experiment [8] concerns the target T2, Protein deacetylase HDAC6 (Homo sapiens) (UniProt Q9UBN7).
T2 sequence (whole entry): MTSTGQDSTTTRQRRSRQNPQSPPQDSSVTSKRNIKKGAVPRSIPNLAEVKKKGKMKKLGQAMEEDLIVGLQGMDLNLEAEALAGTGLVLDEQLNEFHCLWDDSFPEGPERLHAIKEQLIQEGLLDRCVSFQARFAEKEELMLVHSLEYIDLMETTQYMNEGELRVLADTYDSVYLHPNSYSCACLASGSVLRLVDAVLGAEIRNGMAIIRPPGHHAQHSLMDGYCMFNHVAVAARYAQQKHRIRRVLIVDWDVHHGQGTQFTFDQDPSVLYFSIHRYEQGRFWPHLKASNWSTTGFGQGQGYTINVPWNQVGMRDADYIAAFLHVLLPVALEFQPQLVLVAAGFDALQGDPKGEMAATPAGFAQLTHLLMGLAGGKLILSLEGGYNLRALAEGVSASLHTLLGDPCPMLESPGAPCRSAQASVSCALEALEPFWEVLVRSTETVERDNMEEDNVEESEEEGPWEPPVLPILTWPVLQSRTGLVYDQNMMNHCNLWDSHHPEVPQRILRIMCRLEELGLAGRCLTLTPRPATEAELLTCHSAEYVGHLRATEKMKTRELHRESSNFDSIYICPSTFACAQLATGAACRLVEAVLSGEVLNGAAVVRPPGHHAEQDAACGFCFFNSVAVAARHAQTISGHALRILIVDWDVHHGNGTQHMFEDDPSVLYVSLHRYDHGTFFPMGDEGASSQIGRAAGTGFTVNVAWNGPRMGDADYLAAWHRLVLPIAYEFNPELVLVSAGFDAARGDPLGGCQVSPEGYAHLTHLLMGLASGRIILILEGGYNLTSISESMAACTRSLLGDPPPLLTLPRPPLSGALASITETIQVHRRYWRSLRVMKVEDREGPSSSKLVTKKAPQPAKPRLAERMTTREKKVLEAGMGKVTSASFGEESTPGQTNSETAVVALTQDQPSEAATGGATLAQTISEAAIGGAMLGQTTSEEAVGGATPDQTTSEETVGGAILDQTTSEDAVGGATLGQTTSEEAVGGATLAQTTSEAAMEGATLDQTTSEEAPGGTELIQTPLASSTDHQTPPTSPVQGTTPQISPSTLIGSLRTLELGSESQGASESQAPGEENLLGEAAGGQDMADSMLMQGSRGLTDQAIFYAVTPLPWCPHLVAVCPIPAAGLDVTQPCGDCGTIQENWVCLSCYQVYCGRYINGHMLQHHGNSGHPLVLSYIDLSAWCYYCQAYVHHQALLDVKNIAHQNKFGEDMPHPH
The experiment is described as follows: Inhibition of human recombinant KDAC6 using Boc-Lys-(Ac)-AMC as substrate at 50 to 100 uM incubated for 45 mins by fluorescence microplate reader analysis. The following applies: dose 50-100 µM.

Experiment [9] concerns the target Histone deacetylase 2 (Homo sapiens) (UniProt Q92769). The experiment is described as follows: Inhibition of human recombinant KDAC2 using Boc-Lys-(Ac)-AMC as substrate at 50 to 100 uM incubated for 45 mins by fluorescence microplate reader analysis. The following applies: dose 50-100 µM.

Sequence of Histone acetyltransferase p300 (Homo sapiens) (Q09472 whole entry, the tested form may be a part): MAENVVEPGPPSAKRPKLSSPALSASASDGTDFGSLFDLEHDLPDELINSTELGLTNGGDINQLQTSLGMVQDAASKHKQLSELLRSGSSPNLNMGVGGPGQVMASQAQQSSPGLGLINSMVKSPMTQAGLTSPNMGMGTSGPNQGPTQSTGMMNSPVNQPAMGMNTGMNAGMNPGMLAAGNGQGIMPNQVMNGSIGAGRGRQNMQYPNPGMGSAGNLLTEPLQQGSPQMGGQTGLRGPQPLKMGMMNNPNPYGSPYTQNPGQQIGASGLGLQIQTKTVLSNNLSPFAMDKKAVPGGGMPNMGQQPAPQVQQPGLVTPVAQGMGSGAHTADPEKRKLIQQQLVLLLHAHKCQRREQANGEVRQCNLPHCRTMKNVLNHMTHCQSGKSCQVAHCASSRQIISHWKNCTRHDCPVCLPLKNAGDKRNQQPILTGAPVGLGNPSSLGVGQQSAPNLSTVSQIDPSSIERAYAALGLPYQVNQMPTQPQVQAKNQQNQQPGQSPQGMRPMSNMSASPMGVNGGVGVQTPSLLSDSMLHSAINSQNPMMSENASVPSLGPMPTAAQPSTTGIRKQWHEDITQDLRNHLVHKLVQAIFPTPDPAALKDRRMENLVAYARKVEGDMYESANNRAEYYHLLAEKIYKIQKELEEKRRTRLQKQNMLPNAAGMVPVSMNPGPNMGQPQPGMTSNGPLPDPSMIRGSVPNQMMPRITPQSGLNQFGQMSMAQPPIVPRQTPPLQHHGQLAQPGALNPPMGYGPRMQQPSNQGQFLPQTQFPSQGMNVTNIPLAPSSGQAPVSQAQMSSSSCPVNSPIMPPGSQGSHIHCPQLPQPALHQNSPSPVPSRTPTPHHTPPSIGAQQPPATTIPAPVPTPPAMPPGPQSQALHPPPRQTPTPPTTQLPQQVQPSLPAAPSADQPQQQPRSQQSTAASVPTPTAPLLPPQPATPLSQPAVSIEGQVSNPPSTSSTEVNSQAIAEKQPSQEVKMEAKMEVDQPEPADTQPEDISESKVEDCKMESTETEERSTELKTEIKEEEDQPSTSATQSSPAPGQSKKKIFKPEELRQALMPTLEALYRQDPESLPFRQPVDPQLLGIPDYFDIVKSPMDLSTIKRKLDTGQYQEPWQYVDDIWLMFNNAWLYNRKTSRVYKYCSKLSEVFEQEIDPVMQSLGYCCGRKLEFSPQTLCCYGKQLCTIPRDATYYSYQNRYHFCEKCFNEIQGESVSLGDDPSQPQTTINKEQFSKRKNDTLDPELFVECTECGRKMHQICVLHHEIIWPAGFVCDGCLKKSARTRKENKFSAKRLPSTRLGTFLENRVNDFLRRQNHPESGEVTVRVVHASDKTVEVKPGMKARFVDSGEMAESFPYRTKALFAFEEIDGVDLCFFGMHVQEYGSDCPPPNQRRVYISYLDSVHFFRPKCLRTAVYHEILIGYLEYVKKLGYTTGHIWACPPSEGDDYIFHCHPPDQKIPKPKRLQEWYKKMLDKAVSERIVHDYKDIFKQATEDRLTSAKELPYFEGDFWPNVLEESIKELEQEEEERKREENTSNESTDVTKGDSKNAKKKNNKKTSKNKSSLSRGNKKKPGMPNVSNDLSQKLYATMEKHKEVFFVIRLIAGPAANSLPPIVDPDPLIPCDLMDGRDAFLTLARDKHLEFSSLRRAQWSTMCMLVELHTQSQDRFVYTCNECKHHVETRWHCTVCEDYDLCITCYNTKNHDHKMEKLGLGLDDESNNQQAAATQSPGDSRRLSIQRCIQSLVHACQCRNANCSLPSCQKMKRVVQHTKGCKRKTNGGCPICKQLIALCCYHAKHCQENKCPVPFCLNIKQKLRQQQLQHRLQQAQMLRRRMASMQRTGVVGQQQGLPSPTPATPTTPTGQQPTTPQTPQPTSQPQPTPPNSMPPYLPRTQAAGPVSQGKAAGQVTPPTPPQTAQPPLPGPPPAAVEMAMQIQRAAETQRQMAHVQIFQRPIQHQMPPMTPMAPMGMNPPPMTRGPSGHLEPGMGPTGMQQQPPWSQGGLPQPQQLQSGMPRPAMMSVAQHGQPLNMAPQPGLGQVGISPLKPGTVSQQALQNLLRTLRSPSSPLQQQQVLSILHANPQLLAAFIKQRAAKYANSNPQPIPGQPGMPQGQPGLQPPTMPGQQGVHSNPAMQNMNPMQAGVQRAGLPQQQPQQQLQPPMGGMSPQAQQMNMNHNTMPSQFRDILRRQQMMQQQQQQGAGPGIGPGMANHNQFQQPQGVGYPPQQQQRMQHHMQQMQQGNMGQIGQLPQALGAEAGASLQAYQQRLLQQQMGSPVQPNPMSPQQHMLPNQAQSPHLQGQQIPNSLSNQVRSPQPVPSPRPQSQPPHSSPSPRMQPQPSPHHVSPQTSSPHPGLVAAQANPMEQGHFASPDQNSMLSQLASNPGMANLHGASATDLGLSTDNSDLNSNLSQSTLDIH
Sequence of Histone acetyltransferase KAT2B (Homo sapiens) (Q92831 whole entry, looked up, the tested form may be a part): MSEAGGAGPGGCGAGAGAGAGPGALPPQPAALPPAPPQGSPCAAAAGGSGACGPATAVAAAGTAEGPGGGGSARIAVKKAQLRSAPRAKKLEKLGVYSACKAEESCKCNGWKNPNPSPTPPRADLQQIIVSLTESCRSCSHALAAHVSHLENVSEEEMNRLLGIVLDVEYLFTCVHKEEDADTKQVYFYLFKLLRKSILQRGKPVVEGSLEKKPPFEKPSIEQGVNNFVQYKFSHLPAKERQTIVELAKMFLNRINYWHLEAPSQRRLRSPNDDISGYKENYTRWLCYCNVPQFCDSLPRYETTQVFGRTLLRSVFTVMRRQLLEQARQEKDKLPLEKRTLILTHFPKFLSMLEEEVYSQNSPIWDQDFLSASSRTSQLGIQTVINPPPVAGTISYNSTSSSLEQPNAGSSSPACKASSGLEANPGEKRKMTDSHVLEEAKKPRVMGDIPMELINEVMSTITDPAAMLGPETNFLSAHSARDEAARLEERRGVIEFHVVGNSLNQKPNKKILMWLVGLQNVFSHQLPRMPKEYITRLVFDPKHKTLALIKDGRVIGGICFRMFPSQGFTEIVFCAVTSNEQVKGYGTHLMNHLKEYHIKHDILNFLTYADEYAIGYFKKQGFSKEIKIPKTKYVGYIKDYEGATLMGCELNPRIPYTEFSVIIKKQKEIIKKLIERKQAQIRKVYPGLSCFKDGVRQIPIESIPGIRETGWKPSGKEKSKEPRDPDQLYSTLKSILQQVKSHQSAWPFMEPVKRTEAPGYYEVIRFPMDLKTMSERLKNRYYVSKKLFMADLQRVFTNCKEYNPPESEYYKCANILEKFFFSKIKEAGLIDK
Sequence of Histone deacetylase 3 (Homo sapiens) (O15379 whole entry): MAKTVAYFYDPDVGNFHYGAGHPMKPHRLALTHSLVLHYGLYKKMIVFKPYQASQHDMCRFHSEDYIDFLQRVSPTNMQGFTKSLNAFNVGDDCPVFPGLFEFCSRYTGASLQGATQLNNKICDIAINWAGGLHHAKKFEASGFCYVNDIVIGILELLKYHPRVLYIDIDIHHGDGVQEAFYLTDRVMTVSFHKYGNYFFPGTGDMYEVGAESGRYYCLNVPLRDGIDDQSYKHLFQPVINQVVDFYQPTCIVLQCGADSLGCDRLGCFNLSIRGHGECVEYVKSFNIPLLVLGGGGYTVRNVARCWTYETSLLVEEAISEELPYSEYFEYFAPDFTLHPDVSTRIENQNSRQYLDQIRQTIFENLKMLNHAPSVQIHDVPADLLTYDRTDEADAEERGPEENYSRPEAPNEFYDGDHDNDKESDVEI
Sequence of Histone deacetylase 2 (Homo sapiens) (Q92769 whole entry): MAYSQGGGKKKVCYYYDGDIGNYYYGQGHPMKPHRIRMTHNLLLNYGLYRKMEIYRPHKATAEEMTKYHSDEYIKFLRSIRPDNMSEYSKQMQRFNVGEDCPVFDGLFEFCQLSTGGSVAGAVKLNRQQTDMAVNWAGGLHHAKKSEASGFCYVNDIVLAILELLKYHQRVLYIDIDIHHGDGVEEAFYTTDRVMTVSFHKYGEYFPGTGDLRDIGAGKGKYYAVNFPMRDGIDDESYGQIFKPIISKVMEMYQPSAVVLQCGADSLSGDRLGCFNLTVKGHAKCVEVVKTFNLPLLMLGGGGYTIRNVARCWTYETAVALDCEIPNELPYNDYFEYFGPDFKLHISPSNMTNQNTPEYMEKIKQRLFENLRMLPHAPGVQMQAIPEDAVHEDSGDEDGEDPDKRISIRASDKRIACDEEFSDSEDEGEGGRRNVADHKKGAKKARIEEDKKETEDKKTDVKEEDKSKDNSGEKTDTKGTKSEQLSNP

As for `CC1=NN(c2ccc(C(=O)O)cc2)C(=O)/C1=C\c1cc2ccccc2[nH]1`, the inhibition result in experiment [1] is “inactive”. The same measure, in the same setting: the value for `CC1=NN(c2ccc(C(=O)O)cc2)C(=O)/C1=C\c1cc(C(=O)c2ccccc2)c[nH]1` was “inactive”; that for `CC1=NN(c2ccc(C(=O)O)cc2)C(=O)/C1=C\c1cc(C(=O)c2ccccc2C)c[nH]1` was “inactive”.

`CC1=NN(c2ccc(C(=O)O)cc2)C(=O)/C1=C\c1cccn1-c1ccccc1`: the inhibition entry in [1] is “inactive”. Take `CC1=NN(c2ccc(C(=O)O)cc2)C(=O)/C1=C\c1cc(C(=O)c2ccccc2Cl)c[nH]1`: in experiment [1], the inhibition entry was “inactive”. On to `CC1=NN(c2ccc(C(=O)NCCCN3CCCC3)cc2)C(=O)/C1=C\c1ccc[nH]1`, for which, in experiment [2], the inhibition result is “inactive”.

Turning to `CC1=NN(c2ccccc2)C(=O)/C1=C\c1cc(C(=O)c2ccccc2[N+](=O)[O-])c[nH]1`, the inhibition result in experiment [2] is “inactive”. As to `Cc1nn(-c2ccc(C(=O)O)cc2)c(O)c1Cc1ccccc1`, the inhibition entry in [1] and in experiment [3] was “inactive” throughout. For `CC1=NN(c2ccccc2)C(=O)/C1=C\c1cc(C(=O)c2ccccc2)c[nH]1`, in [2], the inhibition entry was “inactive”. In the case of `CC1=NN(c2ccc(C(=O)O)cc2)C(=O)/C1=C\c1cccn1C`, the inhibition result in [1] was “inactive”.

On to `CC1=NN(c2ccc(C(=O)O)cc2)C(=O)/C1=C\c1cc(C(=O)c2ccccc2O)c[nH]1`, for which the inhibition result in experiment [2] was “inactive”.

On to `CC1=NN(c2ccc(C(N)=O)cc2)C(=O)/C1=C\c1ccc[nH]1`, for which the inhibition entry in experiment [1] and in [3] was “inactive” throughout. For `CC1=NN(c2ccc(C(=O)O)cc2)C(=O)C1`, the inhibition result in experiment [2] was “inactive”. In the case of `CC1=NN(c2ccc(C(=O)O)cc2)C(=O)C1=Cc1ccco1` (mixture of isomers), in experiment [1], the inhibition entry is “inactive”. For the compound `CC1=NN(c2ccc(C(=O)O)cc2)C(=O)/C1=C\c1cc(C(=O)c2ccc([N+](=O)[O-])cc2)c[nH]1`, the inhibition result in experiment [2] was “inactive”. Regarding `CC1=NN(c2cccc(C(=O)O)c2)C(=O)/C1=C\c1ccc[nH]1`, the inhibition result in experiment [1] and in experiment [3] was “inactive” each time. Regarding `CC1=NN(c2ccc(C(=O)N(C)C)cc2)C(=O)/C1=C\c1ccc[nH]1`, the inhibition result in experiment [1] and in experiment [3] was “inactive” each time.

`CC1=NN(c2ccc(C(=O)O)cc2)C(=O)/C1=C\c1cc[nH]c1`: the inhibition result in [1] and in [3] was “inactive” in each case.

As to `CC(C)C1=NN(c2ccc(C(=O)O)cc2)C(=O)/C1=C\c1ccc[nH]1`, the inhibition result in [1] and in [3] was “inactive” each time. For the compound `CC1=NN(c2ccc(C(=O)O)cc2)C(=O)/C1=C\c1cc(C(=O)c2ccccc2[N+](=O)[O-])c[nH]1`, the inhibition result in [1] was “inactive”.

In the case of `CC1=NN(c2ccc(C(=O)O)cc2)C(=O)/C1=C\c1ccn[nH]1`, the inhibition result in experiment [1] and in experiment [3] was “inactive” throughout. On to `O=C(O)c1ccc(N2N=C(Cc3ccccc3)/C(=C/c3ccc[nH]3)C2=O)cc1`, for which the inhibition result in experiment [1] and in [3] was “inactive” in each case.

In the case of `CC1=NN(c2ccc(C(=O)O)cc2)C(=O)/C1=C\c1ccccc1`, the inhibition result in experiment [1] and in [3] was “inactive” each time. As to `CC1=NN(c2ccc(C(=O)O)cc2)C(=O)/C1=C\c1cc(C(=O)c2ccc(Cl)cc2)c[nH]1`, in experiment [2], the inhibition result was “inactive”.

Consider `CC1=NN(c2ccc(C(=O)NCc3ccccc3)cc2)C(=O)/C1=C\c1ccc[nH]1`, for which the inhibition result in experiment [1], in experiment [3] and in [2] was “inactive” throughout. Broadly, the IC50 is the concentration at which inhibition is half-maximal. In the case of `CC1=NN(c2ccc(C(=O)O)cc2)C(=O)/C1=C\c1ccc(-c2cc(C)c(C)cc2[N+](=O)[O-])o1`, the inhibition result in experiment [1] and in [2] was “inactive” each time. Besides, the inhibition entry (in the experiment filed under Homo sapiens [4]; in the experiment filed under Homo sapiens [6]; in experiment [7]; in [8]; in experiment [9]) was “Active” each time. Besides, the IC50 in experiment [5] turned out to be 7 µM. `CCCCCCCc1ccc(CCc2cccc(O)c2C(=O)O)cc1`: in experiment [1], the inhibition entry was “inactive”. For `CC1=NN(c2ccc(C(=O)O)cc2)C(=O)/C1=C(/C)c1ccc[nH]1`, the inhibition result in experiment [1] and in [3] was “inactive” each time.

`CC1=NN(c2ccc(C(=O)O)cc2)C(=O)/C1=C\c1c[nH]cn1`: the inhibition result in experiment [1] is “inactive”. The same measure, in the same setting: in the case of `CC1=NN(c2ccc(C(=O)O)cc2)C(=O)/C1=C\c1c[nH]c2ccccc12` it was “inactive”; in that of `CC1=NN(c2ccc(C(=O)O)cc2)C(=O)/C1=C\c1cccs1`, “inactive”. Turning to `Cc1nn(-c2ccc(C(=O)O)cc2)c(O)c1Cc1ccc[nH]1`, the inhibition result in [1] and in experiment [3] was “inactive” throughout.
